Measurements from ChEMBL document CHEMBL3507680, “University of Dundee, Gates Library screen for HepG2 cell viability”.

Assay: Human HepG2 cell viability assay in 384 well format
Type: toxicity, cell-based
Parameters: dose 125 nL, time 70.5 hour; cytotoxicity at 70.5 h: concentration not given beside the values
Settings: HepG2 cells, read-out: Inhibition

| Structure (SMILES) | cytotoxicity at 70.5 h [%] |
| --- | --- |
| CC1CCCN(Cc2c(C3CCOCC3)[nH]c3ncccc23)C1 (centres undefined) | 26.7 |
| O=C(c1ccncc1)N1Cc2ccccc2OC2(CCOCC2)C1 | -18.2 |
| O=C(O)C1(Cc2cc(-c3ccc(F)cc3F)no2)CCOCC1 | 20.5 |
| Cc1cc2c(=O)n3c(nc2s1)CCN(C(=O)c1scnc1C)CC3 | -12.5 |
| Cc1cc(-c2cnc(NC3CCCC3)nc2-c2ccoc2C)on1 | -8.8 |
| CCN(CC)CCNc1ncc(-c2cc(C)no2)c(-c2ccoc2C)n1 | -10.5 |
| Cc1ccc(-c2cc(N)c(=O)n(CC(=O)NCC3CC3)n2)s1 | -23.3 |
| CNC(=O)CCc1cc(C)nc(C2CCCN2)c1 (centres undefined) | -13.7 |
| COCCN1CCC(Cc2cncc(-c3ccc(C(=O)O)cc3)n2)C1 (centres undefined) | -11.8 |
| NCc1cnn(-c2ccccc2C(=O)NCc2ccncc2)c1 | -8.5 |
| Cc1ncc(CNC(=O)Cc2ccc(Cl)cc2)c(C2CCCN2C)n1 (centres undefined) | -16.7 |
| CCCn1ncc(CN2C[C@@H]3CCCN3C[C@@H]2CCSC)c1C | 8.56 |
| CN(C)C(=O)C1(CCCc2ccncc2)CCCN1 (centres undefined) | 9.48 |
| Nc1cc(N2CCCC2c2cnccn2)ncn1 (centres undefined) | -7.75 |
| NC(=O)C1CN(Cc2c[nH]cn2)CCN(C2CCOCC2)C1 (centres undefined) | -9.19 |
| c1cc2nccc(CC3CCCN(Cc4ncc[nH]4)CC3)c2cn1 (centres undefined) | -7.89 |
| COCC(=O)N1CCC(c2noc3nc(C)cc(C(F)(F)F)c23)CC1 | 24.6 |
| CC(=O)N1CCN(c2cc(C3CN(C)CCO3)nc(C)n2)CC1 (centres undefined) | -11.6 |
| CN(Cc1nc(C(F)(F)F)cs1)C(=O)CCc1ccccn1 | -1.82 |
| CC(=O)N1CC(C)CN(C(=O)c2cscn2)c2ccccc21 (centres undefined) | 2.08 |
| CC(=O)N1CC(C)CN(C(=O)c2cccnc2C)c2ccccc21 (centres undefined) | -7.8 |
| Cc1cccc(Oc2ccccc2CNC(=O)C2CCC(=O)NC2)c1 (centres undefined) | -10.6 |
| O=C1CCN(C(=O)NCCc2c[nH]c3ccc(Cl)cc23)CCN1 | -8.44 |
| COC(=O)c1cc(CN2CCC(c3noc(C)n3)CC2)c(C)s1 | 2.05 |

| Structure (SMILES) | cytotoxicity at 70.5 h [%] |
| --- | --- |
| Cc1cccc(Oc2ccccc2CNC(=O)C2CCNC(=O)C2)c1 (centres undefined) | -6.18 |
| COC(=O)c1ccc(CN2CCC(c3noc(C)n3)CC2)s1 | -8.54 |
| Cc1ccc(CNC(=O)C2CCNC(=O)C2)c(OCCC(C)C)c1 (centres undefined) | 0.635 |
| COC(=O)c1ccc(CN2CCN(Cc3nc(C)no3)CC2)s1 | -7.55 |
| O=C(c1cc(F)cc(F)c1)N1CCC(O)(C(F)(F)F)CC1 | 19.9 |
| COCCC(=O)N(C)Cc1nc(C(F)(F)F)cs1 | -1.8 |
| CCSCc1ccc(C(=O)N2CCCN(CC)CC2)cc1 | -10.3 |
| CCOc1ccc(SCCNS(=O)(=O)CC)cc1 | -11.3 |
| CN(CCOc1cccc(S(C)(=O)=O)c1)CC(F)F | -10.4 |
| CN(CCOc1cccc(S(C)(=O)=O)c1)c1ccccc1 | -2.26 |
| COCCCN1CCN(CC2CCCO2)CC1 (centres undefined) | 22.5 |
| Cn1cnc(S(=O)(=O)N2CCCc3c(F)cc(F)cc32)c1Cl | 22.3 |
| Cc1cc(F)c2c(c1)CCCN2S(=O)(=O)c1ncn(C)c1Cl | -0.387 |
| Cc1nc(C)c(C(C)NCc2c(C)nn(C)c2N(C)C)s1 (centres undefined) | -6.29 |
| COCCCN1Cc2cccc(NC(=O)c3cc(F)cc(F)c3)c2C1 | 4.56 |
| COCCCN1Cc2cccc(NC(=O)c3cc(F)ccc3F)c2C1 | -9.4 |
| N#CC1(NC(=O)c2cc(Cl)c3c(c2)OCCCO3)CCC1 | -4.84 |
| Cn1cc(-c2ncc(C(=O)NCCCn3ccccc3=O)s2)cn1 | -10.1 |
| Cc1cc(NC(=O)NCc2nncn2C)ccc1OC(C)C | 22.5 |
| O=C(NCCc1cc(F)ccc1F)NCC(O)C1CC1 (centres undefined) | 11.6 |
| O=C(NCCCO)NCCc1cc(F)ccc1F | -0.605 |
| O=C(O)c1cc(/C=C/c2ccccc2)ncn1 | -5.54 |
| CC1CN(C)c2ccccc2CN1CCn1cncn1 (centres undefined) | -0.327 |
| CC(Nc1ccc(C(F)(F)F)cc1C#N)c1cccc(S(N)(=O)=O)c1 (centres undefined) | 9.79 |

| Structure (SMILES) | cytotoxicity at 70.5 h [%] |
| --- | --- |
| CC(Nc1c(F)cc(C#N)cc1F)c1cccc(S(N)(=O)=O)c1 (centres undefined) | -9.34 |
| COc1ccc(CN2CCn3cccc3C2C)cc1F (centres undefined) | -3.79 |
| COCCCN1Cc2cccc(NC(=O)c3ccccc3C)c2C1 | 15.2 |
| CC(C)c1ocnc1C(=O)Nc1cccc(Cn2ccccc2=O)c1 | 19 |
| O=C(NCc1cccnc1-n1cncn1)c1cc(Cl)ccn1 | 12.4 |
| COc1cc2c(cc1OC)CN(C(=O)NCC1CCCO1)CC2 (centres undefined) | -3.43 |
| c1csc(N2CCCN(c3ncnc4sccc34)CC2)n1 | 10.8 |
| O=C(NCc1ccc(-n2cncn2)nc1)c1cc[nH]n1 | -4.63 |
| COc1ccc2c(c1)CCCN(C(=O)NCC1CCCO1)C2 (centres undefined) | -8.68 |
| COc1ccc(N2CCC(NC(=O)c3ccc(C#N)cc3)CC2)cc1 | -4.31 |
| Cc1ccc(CNC(C)(C)c2noc(C(C)(C)C)n2)o1 | -1.89 |
| COc1ncnc(N)c1CNCCc1ccccc1 | -2.72 |
| CC(C)OCCN1CCC(Nc2ncccn2)CC1 | 0.193 |
| CN1CCC(NC(=O)c2cc(Cl)cc(Br)c2O)C1=O (centres undefined) | -5.52 |
| COc1ccsc1C(=O)NC1CCN(c2ccc(C#N)cc2)CC1 | -5.67 |
| CCN1CCN(C(=O)C2CCOC2)c2ccccc21 (centres undefined) | 21 |
| CC(C)COc1cncc(N2CCCC(CC(N)=O)C2)n1 (centres undefined) | -1.79 |
| CCC(=O)NC1CCCN(c2cncc(OCc3ccccc3)n2)C1 (centres undefined) | -0.318 |
| NC(=O)CC1CCCN(c2cncc(OCc3ccccc3)n2)C1 (centres undefined) | 21.3 |
| Cc1cnc(CCNC(=O)NCCc2ccc(O)cc2)s1 | -3.5 |
| CCc1nnc(C(C)N2CCN(CCC(C)(C)C)CC2)o1 (centres undefined) | -7.09 |
| CC1CN(c2ncnc3c2cnn3C)CCN1c1nccs1 (centres undefined) | -4.86 |
| COc1ccc(C(C)NCCc2ccc(NC(C)=O)cc2)c(OC)c1 (centres undefined) | 0.0966 |
| COc1ccc(C(C)NCCc2ccc(NC(C)=O)cc2)cc1F (centres undefined) | -4.18 |

| Structure (SMILES) | cytotoxicity at 70.5 h [%] |
| --- | --- |
| CC(O)CN1CCN(Cc2coc(-c3cccc(Cl)c3)n2)CC1 (centres undefined) | -1.14 |
| OCCN1CCN(Cc2coc(-c3ccccc3Cl)n2)CC1 | -19.7 |
| COC(=O)c1ccc(C(=O)NCc2ccco2)nc1 | -8.73 |
| Cc1cc(C(=O)N2CCNC(=O)C2)c(C)n1Cc1ccccn1 | -5.56 |
| NC(=O)C(NC1CCN(CC2CCCCC2)CC1)c1ccccc1 (centres undefined) | -4.82 |
| CN(C)CCCNc1ncnc2cccc(F)c12 | 15.7 |
| O=C(O)c1ncccc1OCC(F)(F)F | -0.00705 |
| CCn1cc(C(=O)NCC(OC)c2cccc(Cl)c2)cn1 (centres undefined) | -2.35 |
| CC(O)CN1CCN(C(=O)CCOC(C)C)CC1 (centres undefined) | -3.79 |
| COc1ccc(CN(C)CCS(=O)(=O)c2ccc(Cl)cc2)cc1OC | -12.9 |
| COc1ccc(CCNC(=O)C(C)Nc2ccc(C)c(C)c2)cc1 (centres undefined) | 21 |
| COc1ccc(CCNC(=O)C(C)Nc2cccc(C)c2C)cc1 (centres undefined) | -4.88 |
| CCN1CCN(C(C)CNC(=O)Nc2nnc(C(C)C)s2)CC1 (centres undefined) | -12.4 |
| Cc1nc(CN2CCN(C(=O)c3ccc(=O)n(C)c3)CC2)cs1 | -2.46 |
| CCCn1cc(NC(=O)c2ccc(N(C)CC)cc2)ccc1=O | -7.67 |
| COc1cccc(CN(C)c2ncc(C(N)=O)cc2Cl)c1 | -4.58 |
| CN(Cc1ccc(C#N)cc1)c1ncc(C(N)=O)cc1Cl | -7.36 |
| CCCn1cc(NC(=O)c2cccnc2O)ccc1=O | -1.07 |
| COC(=O)c1sc2cccc(F)c2c1CNC(=O)C1CCCO1 (centres undefined) | 6.87 |
| CC(C)(O)CN1CCN(C(=O)c2cccn2Cc2ccncc2)CC1 | -9.5 |
| Cn1cc(C(=O)N2CCN(Cc3cscn3)CC2)ccc1=O | 4.94 |
| Cc1csc(C2(NC(=O)CCc3ccncc3)CCCC2)n1 | -7.21 |
| Cc1cc(CN2CCN(C(=O)c3ccc(=O)n(C)c3)CC2)no1 | -5.04 |
| CCn1ccnc1CN1CCCC1C(=O)Nc1nccs1 (centres undefined) | -5.23 |

| Structure (SMILES) | cytotoxicity at 70.5 h [%] |
| --- | --- |
| Cc1cc(F)cc2c(N3CCC(S(N)(=O)=O)CC3)c(C#N)cnc12 | -4.86 |
| CC(=O)NC1CCN(c2c(C#N)cnc3c(C)cc(F)cc23)CC1 | 0.242 |
| CC(C)(C#N)c1ccccc1CN1CCC(N2CCCC2=O)CC1 | 13.9 |
| COc1cc2c(cc1CNC(=O)Cc1ccc(C)nc1)OC(C)C2 (centres undefined) | -6.1 |
| Cn1cc(C(=O)N2CCN(Cc3ccccn3)CC2)ccc1=O | 19.1 |
| CN(C)c1ccccc1CN1CCCC(N2CCCC2=O)C1 (centres undefined) | -8.7 |
| Cc1cc(C)c2ncc(C#N)c(N3CCS(=O)(=O)CC3)c2c1 | -7.23 |
| CCOCCC(=O)N1CCN(CC(C)O)CC1 (centres undefined) | 16 |
| CC(=O)Nc1cccc(CN2CCCC2C(=O)Nc2nccs2)c1 (centres undefined) | 17.5 |
| CN(C)C(C)(C)CNCc1c[nH]nc1-c1cc2ccccc2o1 | 10 |
| CCN(CC)CCn1cc(NC2CCN(C(C)(C)C)CC2)cn1 | 5.68 |
| CC(=O)N(C)Cc1cccc(NC(=O)CCCc2nc(C(C)C)no2)c1 | 9.44 |
| CCN(CC(=O)Nc1cc(Cl)ccc1C)C(=O)c1ccncc1 | -1.81 |
| CCN(CC(=O)Nc1cc(Cl)ccc1C)C(=O)c1cnccn1 | 0.456 |
| CCCNC(=O)CNC(=O)c1scnc1C | 3.25 |
| Cc1cc(C(=O)Nc2ccc3c(ccn3CCN3CCOCC3)c2)on1 | -5.31 |
| Cc1ccc2c(c1)CN(C(=O)C1CCCCC1)C(CN(C)C)CO2 (centres undefined) | 0.565 |
| Cc1cc2c(=O)n3c(nc2s1)CCN(Cc1cnn(C)c1C)CC3 | -11.8 |
| Cc1cc(-c2cnc(N3CCCC(C)C3)nc2-c2cccnc2C)on1 (centres undefined) | 23.3 |
| COc1ccc(OCCc2sc(C3(O)CCCNCC3)nc2C)cc1 (centres undefined) | 2.2 |
| Cc1ccc(CN(CCCn2ccnc2)Cc2c[nH]cn2)s1 | -0.992 |
| COc1ccc(CN(Cc2cncn2C)CC2CCCO2)cc1OC (centres undefined) | -10.3 |
| Cc1cc(C[C@@H]2COC[C@H]2NCc2ccc(Br)s2)on1 | 22.3 |
